Experimental data from patent publication US20020051811A1, “Method and composition for masking mineral taste” (priority 1999, published 2002).
Marks after values point to notes of the source that are not given here. Residues, ends and D or L forms follow the SMILES beside them.

Assays:
Assay type in all cases: in vivo
[1] = AK added at low levels to solutions containing KCl, perceived bitter aftertaste; conditions: 1 to 5 mg/100 ml
Experimental: The level of AK used was 1 to 5 mg/100 ml, which is equivalent in sweetness contribution to between 0.2% and 1% sucrose. This characteristic is specific to AK, and is not noted when […].

[2] = Effect of glycyrrhizin on potassium-containing beverages (taste scores); conditions: for effect on aftertaste of KCl: 20-40 mg/100 cc, beverage containing 2.52% KCl by weight; for Bitter / Metallic / Salt: 2.52% KCl beverage, scale 0 to 8
From the text: The effect of glycyrrhizin on potassium-containing beverages was studied.

[3] = Expert panel evaluation of taste modifiers on taste of KCl solutions; conditions: 1.26% KCl, score 0-8
Experimental: Additional testing was conducted, comparing the absence of taste modifiers with the three taste modifiers of the invention, both separately, and in combinations (AK and glycyrrhizin) (AK and tannic acid) (glycyrrhizin and tannic acid). […] In this study, again, 1.26% KCl was prepared, and used as the test medium for all experiments. The aqueous solution was evaluation by an expert panel for each of the taste attributes. The panel consisted of eight individuals who were screened for their taste acuity and trained in the use of the score sheet. The score sheet employed by the panel appears as Table III hereto.

[4] = Effect of tannic acid on potassium-containing beverages (taste scores); conditions: for Aftertaste / Bitter / Salt: 1.26% KCl beverage, scale 0 to 8
From the text: The effect of tannic acid on potassium-containing beverages was studied.

For `COC(=O)[C@H](Cc1ccccc1)NC(=O)[C@@H](N)CC(=O)O` [aspartame] (HELM PEPTIDE1{D.F.[CO[*:1]]}$$$$V2.0), the “effect on perceived bitter aftertaste of KCl solutions” value (shortened to “effect on perceived bitter aftertaste”) [1] was “not noted”.

With `O=C1NS(=O)(=O)c2ccccc21` [saccharin] the “effect on perceived bitter aftertaste” value [1] was “not noted”.

In the case of `CC1(C)[C@@H](O[C@H]2O[C@H](C(=O)O)[C@@H](O)[C@H](O)[C@H]2O[C@@H]2O[C@H](C(=O)O)[C@@H](O)[C@H](O)[C@H]2O)CC[C@]2(C)[C@H]3C(=O)C=C4[C@@H]5C[C@@](C)(C(=O)O)CC[C@]5(C)CC[C@@]4(C)[C@]3(C)CC[C@@H]12` [glycyrrhizin], the “effect on aftertaste of KCl” value [2] is reported as “effective in reducing the aftertaste of KCl”, the “effect on aftertaste of KCl” value ([2]; listed as Glycyrrhizin) is reported as “effective in reducing the bitter and metallic aftertaste of KCl” and the Bitter ([2]; +20 mg/100 cc glycyrrhizin) is reported as 2.5. For the same compound, the Metallic ([2]; +20 mg/100 cc glycyrrhizin) was 2.0, the Salt ([2]; +20 mg/100 cc glycyrrhizin) was 2.5 and the Bitter ([2]; +40 mg/100 cc glycyrrhizin) was 2.5. The Metallic ([2]; +40 mg/100 cc glycyrrhizin) was 2.0, the Salt ([2]; +40 mg/100 cc glycyrrhizin) was 2.0 and the Bitter ([3]; modifier 5.0 mg/100 cc) was 2.0*. The Other ([3]; modifier 5.0 mg/100 cc) was 1.0*, the Salt ([3]; modifier 5.0 mg/100 cc) was 3.5 and the Sour ([3]; modifier 5.0 mg/100 cc) was 0.0. The Sweet ([3]; modifier 5.0 mg/100 cc) was 0.0, the Bitter ([3]; modifier 10.0 mg/100 cc) was 3.3* and the Other ([3]; modifier 10.0 mg/100 cc) was 2.0*. The Salt ([3]; modifier 10.0 mg/100 cc) was 2.3, the Sour ([3]; modifier 10.0 mg/100 cc) was 0.0 and the Sweet ([3]; modifier 10.0 mg/100 cc) was 0.0. The Bitter ([3]; modifier 20.0 mg/100 cc) was 2.3*, the Other ([3]; modifier 20.0 mg/100 cc) was 2.0* and the Salt ([3]; modifier 20.0 mg/100 cc) was 2.0. For the same compound, the Sour ([3]; modifier 20.0 mg/100 cc) was 0.0 and the Sweet ([3]; modifier 20.0 mg/100 cc) was 0.5.

With `CC1=CC(=O)NS(=O)(=O)O1` [Acesulfame-K, acesulfame potassium] the “effect on perceived bitter aftertaste” value [1] was “reduced the perceived bitter aftertaste”, the Bitter ([3]; modifier 2.5 mg/100 cc) was 3.0* and the Other ([3]; modifier 2.5 mg/100 cc) was 2.8*. It also gave a Salt ([3]; modifier 2.5 mg/100 cc) of 2.8, a Sour ([3]; modifier 2.5 mg/100 cc) of 0.0 and a Sweet ([3]; modifier 2.5 mg/100 cc) of 0.0. The Bitter ([3]; modifier 5.0 mg/100 cc) was 2.3*, the Other ([3]; modifier 5.0 mg/100 cc) was 2.2* and the Salt ([3]; modifier 5.0 mg/100 cc) was 2.3. For the same compound, the Sour ([3]; modifier 5.0 mg/100 cc) was 0.0, the Sweet ([3]; modifier 5.0 mg/100 cc) was 0.0 and the Bitter ([3]; modifier 7.5 mg/100 cc) was 1.8*. The Other ([3]; modifier 7.5 mg/100 cc) was 0.5*, the Salt ([3]; modifier 7.5 mg/100 cc) was 1.5* and the Sour ([3]; modifier 7.5 mg/100 cc) was 0.0. The Sweet ([3]; modifier 7.5 mg/100 cc) was 1.3.

Compound `O=C(OC[C@H]1O[C@@H](OC(=O)c2cc(O)c(O)c(OC(=O)c3cc(O)c(O)c(O)c3)c2)[C@H](OC(=O)c2cc(O)c(O)c(OC(=O)c3cc(O)c(O)c(O)c3)c2)[C@@H](OC(=O)c2cc(O)c(O)c(OC(=O)c3cc(O)c(O)c(O)c3)c2)[C@@H]1OC(=O)c1cc(O)c(O)c(OC(=O)c2cc(O)c(O)c(O)c2)c1)c1cc(O)c(O)c(OC(=O)c2cc(O)c(O)c(O)c2)c1` [tannic acid] has an Aftertaste ([4]; +5 mg/100 cc tannic acid) of 1.0, a Bitter ([4]; +5 mg/100 cc tannic acid) of 1.0 and a Salt ([4]; +5 mg/100 cc tannic acid) of 1.5. For the same compound, the Aftertaste ([4]; +10 mg/100 cc tannic acid) was 1.0, the Bitter ([4]; +10 mg/100 cc tannic acid) was 1.0 and the Salt ([4]; +10 mg/100 cc tannic acid) was 1.0. It also gave an Aftertaste ([4]; +50 mg/100 cc tannic acid) of 1.0, a Bitter ([4]; +50 mg/100 cc tannic acid) of 2.5 and a Salt ([4]; +50 mg/100 cc tannic acid) of 1.5. For the same compound, the “effect on bitter aftertaste and salty taste” value ([4]; beverage containing 1.26% KCl) was “reduces the level of bitter aftertaste without increasing the salty taste”, the “effect on aftertaste of KCl” value ([4]; levels as low as 5 mg/100 cc, beverage containing 1.26% KCl by weight) was “effective in reducing and eliminating the aftertaste of KCl” and the Bitter ([3]; modifier 1.0 mg/100 cc) was 3.0*. For the same compound, the Other ([3]; modifier 1.0 mg/100 cc) was 3.3*, the Salt ([3]; modifier 1.0 mg/100 cc) was 3.3 and the Sour ([3]; modifier 1.0 mg/100 cc) was 0.0. The Sweet ([3]; modifier 1.0 mg/100 cc) was 0.0, the Bitter ([3]; modifier 5.0 mg/100 cc) was 2.0* and the Other ([3]; modifier 5.0 mg/100 cc) was 3.0*. For the same compound, the Salt ([3]; modifier 5.0 mg/100 cc) was 3.8, the Sour ([3]; modifier 5.0 mg/100 cc) was 0.0 and the Sweet ([3]; modifier 5.0 mg/100 cc) was 0.0. For the same compound, the Bitter ([3]; modifier 10.0 mg/100 cc) was 2.0*, the Other ([3]; modifier 10.0 mg/100 cc) was 2.0* and the Salt ([3]; modifier 10.0 mg/100 cc) was 2.0. For the same compound, the Sour ([3]; modifier 10.0 mg/100 cc) was 0.0 and the Sweet ([3]; modifier 10.0 mg/100 cc) was 0.0.
